The subject of assay [1] is P. aeruginosa PAM1154 carrying pUCP24 vector (PAM4175). Briefly: Checkerboard potentiation of antibiotic activity by BLIs. The format is cell-based, Pseudomonas aeruginosa.
Assay [2] has the same test system. The assay can be described thus: MIC, CLSI broth microdilution. The format is cell-based. The settings on record: Pseudomonas aeruginosa, drug alone. From the text: The effects of KPC mutations on resistance to various antibiotics were investigated. For these studies, pUCP24 plasmids carrying wild-type and mutant blaKPC-2 genes as well as the pUCP24 vector were transformed into PAM1154, an efflux-deficient strain of Pseudomonas aeruginosa. In this host, the effect of β-lactamases on β-lactam MIC is amplified due to the slowed uptake of β-lactams across the low-permeability outer membrane without interference by efflux of either β-lactams or BLIs. Consequently, this host allows detection of β-lactamase activity (as an MIC increase) of low-catalytic-efficiency enzymes that rely heavily on the low permeability of the outer membrane. Using the strain that lacks efflux pumps ensures no interference from efflux in interpreting results. We next evaluated the steady-state protein expression levels in bacterial cells. […] The observed discrepancy with our results could be attributed to the difference in either the expression vector or host bacteria.
For microbiological studies, wild-type blaKPC-2 and its mutant variants were cloned into the shuttle vector pUCP24. Resulting plasmids were transformed in the efflux-deficient strain of P. aeruginosa PAM1154 using selection on 15 μg/ml of gentamicin. Using a strain of P. aeruginosa as opposed to E. coli as a host for various cloned genes was based on the following consideration. As well documented elsewhere ([41]), P. aeruginosa has a low-permeability outer membrane; consequently, the effect of β-lactamases on MIC is amplified in P. aeruginosa compared to that in E. coli due to the slowed uptake of β-lactams. Thus, this host is appropriate to detect β-lactamase activity (as an MIC increase) of low-catalytic-efficiency enzymes that rely heavily on low permeability of the outer membrane. […] MICs were determined using the Clinical and Laboratory Standards Institute (CLSI) broth microdilution method as described in CLSI document M07-A11 ([42]). Potentiation of antibiotic activity by various BLIs in bacterial strains carrying wild-type (WT) and mutant KPC-2 genes was performed using standard checkerboard methodology ([43]). BLI potency was defined as PV50 (PV, potentiation value). PV50 is the minimal concentration of a BLI that is required to reduce the antibiotic MIC to the middle of the MIC range (E50) where the highest MIC is the MIC for a KPC-producing strain with no inhibitor added and the lowest MIC is the MIC for the vector-only strain, corresponding to the complete inhibition of KPC. E50 is calculated as the square root of the product of the antibiotic MICs for the KPC-producing and the vector-only strains.
(In general: In broth dilution the organism is exposed to a series of concentrations in liquid medium.)

The target of the next assay is T1, KPC-2 L169P (Klebsiella pneumoniae, UniProt Q9F663, L168P).
T1 construct: 6xHis (C); made in house; host or cells: E. coli (pET28a construct; BL21(DE3) pLys is named only for wild type and D179Y)
Briefly: Steady-state Ki with nitrocefin as substrate (method of Waley). Type of assay: biochemical. Particulars: NCF substrate, 10 min preincubation, 37°C.

The target in assay [3] is T2, KPC-2 (Klebsiella pneumoniae, UniProt Q9F663).
T2 construct: 6xHis (C); made in house; host or cells: E. coli BL21(DE3) pLys, pET28a
The settings on record: NCF hydrolysis; cited from earlier work.

Another assay addresses T3, KPC-2 D179Y (Klebsiella pneumoniae, UniProt Q9F663, D178Y).
T3 construct: 6xHis (C); made in house; host or cells: E. coli BL21(DE3) pLys, pET28a
The assay can be described thus: IC50 of inhibition of ceftazidime hydrolysis. The format is biochemical. The procedure: (§1) Enzymes were mixed with BLIs at concentrations varying from 160 to 0.0027 μM in buffer A and incubated for 10 min, and 100 μM (for wild-type KPC-2) or 10 μM (for the D179Y mutant) CFTZ was subsequently added. Substrate cleavage profiles were recorded at 260 nm every 10 s for 10 min. Initial rates of reaction were calculated and exported to Prism software to calculate IC50s using the “dose-response – inhibition, variable slope (four parameters)” equation.

For assay [4], the target named is T2, KPC-2. Briefly: IC50 of inhibition of ceftazidime hydrolysis. Type of assay: biochemical. The procedure:
as §1

Each structure is given as a SMILES string. Bounds are passed on as bounds.

A word on the MIC: it is the least concentration at which growth counts as inhibited. Turning to `CO/N=C(\C(=O)N[C@@H]1C(=O)N2C(C(=O)[O-])=C(C[N+]3(C)CCCC3)CS[C@H]12)c1csc(N)n1` [Cefepime, cefepime], the “Antibiotic MIC with avibactam at 4 μg/ml” value in assay [1] (avibactam 4 μg/ml) worked out at 0.125 µg/mL. Besides, the “Antibiotic MIC, No BLI” value in assay [1] (no BLI) came to 0.125 µg/mL. Moreover, the “Antibiotic MIC with vaborbactam at 8 μg/ml” value in assay [1] (vaborbactam 8 μg/ml) is 0.125 µg/mL. The MIC in assay [2] amounted to 0.125 µg/mL.
The Ki is a dissociation constant, usually derived from enzyme kinetics or from competition with a known ligand. Usually Kd stands for the constant that tells how readily two partners part at equilibrium. As a reminder, the IC50 is the midpoint of a concentration-inhibition curve. The low end stands for inhibition by little substance, the high end for a need for much substance. On KPC-2 L169P, `O=C(O)C[C@@H]1CC[C@H](NC(=O)Cc2cccs2)B(O)O1` [Vaborbactam, vaborbactam] gave a Ki of 190 ± 20 nM. At KPC-2 [3], the Kd was 8 nM, the k2/K is 5.5 ± 0.5 × 10^3 M^−1 s^−1 and the “k−2” value was 4.3 ± 0.6 × 10^−5 s^−1. This compound also displayed an IC50 against KPC-2 D179Y of 1900 ± 300 nM. The compound also gave an IC50 against KPC-2 [4] of 940 ± 20 nM. Further, the MIC in assay [2] was greater than 256 µg/mL.
